Results on two molecules are retold here after ChEMBL document CHEMBL1141550, “N-Alkylated galanthamine derivatives: Potent acetylcholinesterase inhibitors from Leucojum aestivum” (Bioorg Med Chem Lett, 2008).

A word on the IC50: it is the concentration that inhibits the measured activity by half. Read a low IC50 as greater potency.

The target of the assay is Acetylcholinesterase (Electrophorus electricus, UniProt O42275). Kind of assay: Inhibition of electric eel acetylcholinesterase.
Chain of Acetylcholinesterase (O42275 whole entry): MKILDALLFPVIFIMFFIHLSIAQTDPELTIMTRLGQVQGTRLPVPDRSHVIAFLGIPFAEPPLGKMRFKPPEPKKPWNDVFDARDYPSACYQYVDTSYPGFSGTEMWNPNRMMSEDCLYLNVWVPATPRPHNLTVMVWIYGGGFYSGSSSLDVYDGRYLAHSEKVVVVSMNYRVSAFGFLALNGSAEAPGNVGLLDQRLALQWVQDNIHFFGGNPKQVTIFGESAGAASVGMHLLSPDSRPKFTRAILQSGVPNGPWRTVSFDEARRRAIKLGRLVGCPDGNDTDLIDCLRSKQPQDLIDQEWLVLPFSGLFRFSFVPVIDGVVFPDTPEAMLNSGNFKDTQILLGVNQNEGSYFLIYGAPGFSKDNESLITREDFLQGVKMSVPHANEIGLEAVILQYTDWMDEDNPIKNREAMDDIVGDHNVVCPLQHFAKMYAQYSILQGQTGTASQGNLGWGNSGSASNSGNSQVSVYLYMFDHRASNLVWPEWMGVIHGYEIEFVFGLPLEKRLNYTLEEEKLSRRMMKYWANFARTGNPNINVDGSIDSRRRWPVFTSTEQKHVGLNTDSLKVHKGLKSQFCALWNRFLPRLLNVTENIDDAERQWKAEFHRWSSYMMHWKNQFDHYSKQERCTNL

In the case of `C=C(C)CN1CC[C@@]23C=C[C@H](O)C[C@@H]2Oc2c(OC)ccc(c23)C1`, the IC50 amounted to 160 nM. To `C=CCN1CC[C@@]23C=C[C@H](O)C[C@@H]2Oc2c(OC)ccc(c23)C1` [N-ALLYLNORGALANTHAMINE] belongs 180 nM.
